Values after ≈ are worked out from the molar mass of the structure shown. Values joined by “and” are separate entries in the source; they are usually repeats but may differ in a detail not shown here. Identical values can stand only once.
Columns and labels:
Assay in all cases: ≥ marks a high value that may be exact or a test limit, other limits are often not marked, values filed in µg/mL are converted to µM
[1] = system: Bacillus subtilis ATCC 6051
[2] = system: Escherichia coli NEB5alpha
[3] = system: Escherichia coli ATCC 25922
Escherichia coli = system: Escherichia coli
[4] = system: Salmonella enterica subsp. enterica serovar Enteritidis
Salmonella sp. = system: Salmonella sp.
[5] = system: Staphylococcus aureus ATCC 29213
[6] = system: Staphylococcus aureus ATCC 43300
Yersinia enterocolitica = system: Yersinia enterocolitica
Bacillus subtilis 168 HT = system: Bacillus subtilis 168 HT
[7] = system: Escherichia coli K12 MG1655
[8] = system: Staphylococcus aureus ST88
[9] = system: Staphylococcus haemolyticus 527
[10] = system: Pseudomonas aeruginosa ATCC 27853
Bacillus subtilis C971 = system: Bacillus subtilis C971
[11] = system: Corynebacterium xerosis C875
[12] = system: Enterococcus faecalis C625
Escherichia coli DC2 = system: Escherichia coli DC2
Escherichia coli UB1005 = system: Escherichia coli UB1005
[13] = system: Pseudomonas aeruginosa H187
[14] = system: Pseudomonas aeruginosa H188
[15] = system: Salmonella typhimurium C587
[16] = system: Salmonella typhimurium C610
[17] = system: Staphylococcus aureus ATCC 25923
[18] = system: Staphylococcus aureus SAP 0017
[19] = system: Staphylococcus epidermidis ATCC 12228
[20] = system: Staphylococcus epidermidis C621
[21] = system: Staphylococcus aureus 930918-3
[22] = system: Staphylococcus aureus ATCC 33591
Leuconostoc lactis = system: Leuconostoc lactis
[23] = system: Micrococcus luteus ATCC 9341
[24] = system: Staphylococcus epidermidis ATCC 14990
Streptococcus uberis = system: Streptococcus uberis

`CC[C@H](C)[C@H](NC(=O)[C@H](CC(N)=O)NC(=O)[C@H](CCC(N)=O)NC(=O)[C@@H](N)Cc1cnc[nH]1)C(=O)NCC(=O)N[C@@H](CO)C(=O)N[C@@H](CO)C(=O)N[C@@H](CO)C(=O)N[C@@H](CO)C(=O)N1CCC[C@H]1C(=O)N[C@@H](CC(=O)O)C(=O)N[C@H](C(=O)N[C@@H](Cc1ccc(O)cc1)C(=O)O)[C@@H](C)CC` [HQNIGSSSSPDIY] showed an MIC [1] of at least 1000 µM and an MIC [2] of at least 1000 µM.

Compound `CC[C@H](C)[C@H](NC(=O)[C@H](CCCCN)NC(=O)[C@@H](NC(=O)[C@H](CCC(N)=O)NC(=O)[C@@H](N)CCCN=C(N)N)[C@@H](C)CC)C(=O)N[C@@H](Cc1c[nH]c2ccccc12)C(=O)N[C@@H](CCCN=C(N)N)C(=O)N[C@@H](CCCN=C(N)N)C(=O)N[C@@H](CCSC)C(=O)N[C@@H](CCCCN)C(=O)N[C@@H](Cc1c[nH]c2ccccc12)C(=O)N[C@@H](CCCCN)C(=O)N[C@@H](CCCCN)C(N)=O` [RQIKIWRRMKWKK] has an MIC [3] of 3.37 µM (≈ 6.25 µg/mL), an MIC (Escherichia coli) of 3.01 µM (≈ 5.59 µg/mL) and an MIC [4] of 6.73 µM (≈ 12.5 µg/mL). The MIC (Salmonella sp.) was 2.69 µM (≈ 5 µg/mL), the MIC [5] was 26.9 µM (≈ 50 µg/mL) and the MIC [6] was 13.5 µM (≈ 25 µg/mL). For the same compound, the MIC (Yersinia enterocolitica) was 3.37 µM (≈ 6.25 µg/mL).

In the case of `CC[C@H](C)[C@H](NC(=O)[C@H](CC(C)C)NC(=O)[C@@H](N)C(C)C)C(=O)N[C@@H](CCCN=C(N)N)C(=O)NCC(=O)N[C@@H](CC(C)C)C(=O)N[C@H](C(=O)N[C@@H](Cc1cnc[nH]1)C(=O)N[C@@H](CCSC)C(=O)N[C@@H](CC(C)C)C(=O)N[C@@H](CCCN=C(N)N)C(=O)NCC(=O)NCC(=O)O)[C@@H](C)CC` [VLIRGLIHMLRGG], the MIC (Bacillus subtilis 168 HT) is reported as 22.4 µM (≈ 32.1 µg/mL), the MIC [7] is reported as at least 100 µM and the MIC [8] is reported as at least 100 µM. It also gave an MIC [9] of at least 100 µM.

`CC[C@H](C)[C@H](NC(=O)[C@H](CCC(N)=O)NC(=O)[C@@H](N)CCCN=C(N)N)C(=O)N[C@@H](CCCN=C(N)N)C(=O)N[C@@H](Cc1c[nH]c2ccccc12)C(=O)N[C@@H](CCC(N)=O)C(=O)N[C@@H](CCCN=C(N)N)C(N)=O` [RQIRWQR] showed an MIC [3] of over 50 µM, an MIC (Escherichia coli) of over 50 µM and an MIC [10] of over 50 µM. The MIC [4] was at least 50 µM, the MIC (Salmonella sp.) was at least 50 µM and the MIC [5] was over 50 µM. The MIC [6] was over 50 µM and the MIC (Yersinia enterocolitica) was at least 50 µM.

`CC[C@H](C)[C@H](NC(=O)[C@H](C)NC(=O)[C@H](CCCCN)NC(=O)[C@H](CC(C)C)NC(=O)[C@H](C)NC(=O)[C@@H](NC(=O)[C@H](Cc1cnc[nH]1)NC(=O)[C@H](CC(C)C)NC(=O)[C@@H](NC(=O)[C@@H](NC(=O)[C@H](CCCCN)NC(=O)[C@H](CO)NC(=O)[C@H](C)NC(=O)[C@H](CO)NC(=O)[C@H](CCCCN)NC(=O)[C@H](Cc1ccccc1)NC(=O)[C@@H](NC(=O)[C@H](CCCCN)NC(=O)[C@H](CC(C)C)NC(=O)[C@H](Cc1ccccc1)NC(=O)[C@H](CO)NC(=O)[C@H](CCCCN)NC(=O)[C@H](Cc1c[nH]c2ccccc12)NC(=O)[C@H](CCCCN)NC(C)=O)[C@@H](C)O)[C@@H](C)O)C(C)C)[C@@H](C)O)C(=O)N[C@@H](CO)C(=O)N[C@@H](CO)C(N)=O` [KWKSFLKTFKSASKTVLHTALKAISS] showed an MIC (Bacillus subtilis C971) of 0.86 µM (≈ 2.54 µg/mL), an MIC [11] of 0.55 µM (≈ 1.62 µg/mL) and an MIC [12] of 17.5 µM (≈ 51.5 µg/mL). For the same compound, the MIC [3] was 8 µM (≈ 23.6 µg/mL), the MIC (Escherichia coli DC2) was 0.86 µM (≈ 2.54 µg/mL) and the MIC (Escherichia coli UB1005) was 0.86 µM (≈ 2.54 µg/mL). For the same compound, the MIC [10] was 8 µM (≈ 23.6 µg/mL), the MIC [13] was 2.2 µM (≈ 6.49 µg/mL) and the MIC [14] was 3.47 µM (≈ 10.2 µg/mL). The MIC [15] was 2.2 µM (≈ 6.49 µg/mL), the MIC [16] was 0.688 µM (≈ 2.03 µg/mL) and the MIC [17] was 5.5 µM and 8 µM. It also gave an MIC [18] of 4.37 µM (≈ 12.9 µg/mL), an MIC [19] of 4 µM (≈ 11.8 µg/mL) and an MIC [20] of 1.38 µM (≈ 4.06 µg/mL).

In the case of `CC[C@H](C)[C@H](NC(=O)[C@H](C)NC(=O)[C@H](CCCCN)NC(=O)[C@H](CC(C)C)NC(=O)[C@H](C)NC(=O)[C@@H](NC(=O)[C@H](Cc1cnc[nH]1)NC(=O)[C@H](CC(C)C)NC(=O)[C@@H](NC(=O)[C@@H](NC(=O)[C@H](CCCCN)NC(=O)[C@@H](NC(=O)[C@H](C)NC(=O)[C@H](C)NC(=O)[C@H](CCCCN)NC(=O)[C@H](Cc1ccccc1)NC(=O)[C@@H](NC(=O)[C@H](CCCCN)NC(=O)[C@H](CC(C)C)NC(=O)[C@H](Cc1ccccc1)NC(=O)[C@H](CO)NC(=O)[C@H](CCCCN)NC(=O)[C@H](Cc1c[nH]c2ccccc12)NC(=O)[C@H](CCCCN)NC(C)=O)[C@@H](C)O)C(C)C)[C@@H](C)O)C(C)C)[C@@H](C)O)C(=O)N[C@@H](CO)C(=O)N[C@@H](CO)C(N)=O` [KWKSFLKTFKAAVKTVLHTALKAISS], the MIC (Bacillus subtilis C971) is reported as 0.861 µM (≈ 2.54 µg/mL), the MIC [11] is reported as 0.689 µM (≈ 2.03 µg/mL) and the MIC [12] is reported as 6.95 µM (≈ 20.5 µg/mL). The MIC (Escherichia coli DC2) was 1.38 µM (≈ 4.06 µg/mL), the MIC (Escherichia coli UB1005) was 2.2 µM (≈ 6.49 µg/mL) and the MIC [13] was 3.48 µM (≈ 10.2 µg/mL). For the same compound, the MIC [14] was 5.51 µM (≈ 16.2 µg/mL), the MIC [15] was 6.95 µM (≈ 20.5 µg/mL) and the MIC [16] was 1.38 µM (≈ 4.06 µg/mL). For the same compound, the MIC [17] was 5.51 µM (≈ 16.2 µg/mL), the MIC [18] was 4.37 µM (≈ 12.9 µg/mL) and the MIC [20] was 1.38 µM (≈ 4.06 µg/mL).

`CC[C@H](C)[C@H](NC(=O)[C@H](Cc1cnc[nH]1)NC(=O)[C@@H](NC(=O)[C@H](CC(C)C)NC(=O)[C@@H](NC(=O)[C@@H](NC(=O)[C@H](CCCN=C(N)N)NC(=O)[C@H](CC(C)C)NC(=O)[C@H](Cc1c[nH]c2ccccc12)NC(=O)[C@H](CO)NC(=O)[C@H](CCCCN)NC(=O)[C@@H](NC(=O)[C@H](CC(C)C)NC(=O)[C@H](Cc1cnc[nH]1)NC(=O)[C@@H](NC(=O)[C@@H](NC(=O)[C@@H](NC(=O)[C@H](Cc1cnc[nH]1)NC(=O)[C@H](CC(C)C)NC(=O)[C@H](CCC(N)=O)NC(=O)[C@H](CCCCN)NC(=O)[C@H](Cc1ccccc1)NC(=O)[C@H](CO)NC(=O)[C@H](CCCCN)NC(=O)CNC(=O)[C@H](CCCCN)NC(=O)[C@@H](N)CCCCN)[C@@H](C)CC)[C@@H](C)CC)C(C)C)C(C)C)[C@@H](C)O)[C@@H](C)CC)[C@@H](C)O)C(=O)O` [KKGKSFKQLHIIVHLVKSWLRTILTHI] was tested, and the MIC (Bacillus subtilis 168 HT) was 10 µM (≈ 32.2 µg/mL), the MIC [7] was 10 µM (≈ 32.2 µg/mL) and the MIC [8] was 19.9 µM (≈ 64.2 µg/mL). The MIC [9] was 10 µM (≈ 32.2 µg/mL).

`CC[C@H](C)[C@H](NC(=O)[C@H](CCCCN)NC(=O)[C@H](CCCCN)NC(=O)[C@H](CC(C)C)NC(=O)[C@H](CCCCN)NC(=O)[C@H](CCC(=O)O)NC(=O)[C@H](CCCCN)NC(=O)[C@@H](NC(=O)[C@@H](N)CCCCN)[C@@H](C)CC)C(=O)NCC(=O)N[C@@H](CCC(N)=O)C(=O)N[C@@H](CCCCN)C(=O)N[C@H](C(=O)N[C@@H](CCC(N)=O)C(=O)NCC(=O)N[C@@H](CC(C)C)C(=O)N[C@@H](CC(C)C)C(=O)O)[C@@H](C)CC` [KIKEKLKKIGQKIQGLL] gave an MIC [21] of at least 127 µM and an MIC [22] of at least 127 µM.

In the case of `CC[C@H](C)[C@H](NC(=O)[C@H](CC(C)C)NC(=O)[C@H](Cc1cnc[nH]1)NC(=O)CNC(=O)[C@@H](NC(=O)[C@@H](NC(=O)CNC(=O)[C@@H](NC(=O)[C@@H](NC(=O)[C@H](CCCCN)NC(=O)[C@@H]1CCCN1C(=O)[C@H](CC(C)C)NC(=O)[C@H](Cc1ccccc1)NC(=O)[C@H](CO)NC(=O)[C@H](CC(C)C)NC(=O)[C@H](CC(C)C)NC(=O)CN)C(C)C)[C@@H](C)CC)C(C)C)[C@@H](C)CC)C(=O)N[C@@H](Cc1cnc[nH]1)C(=O)N1CCC[C@H]1C(=O)N1CCC[C@H]1C(=O)N[C@@H](CO)C(=O)O` [GLLSFLPKVIGVIGHLIHPPS], the MIC (Leuconostoc lactis) is reported as 12 µM (≈ 26.3 µg/mL), the MIC [23] is reported as at least 100 µM and the MIC [24] is reported as at least 100 µM. It also gave an MIC (Streptococcus uberis) of at least 50 µM.

Reference: DBAASP
